Data taken from patent US7566737B2 (Genfit, priority 2002, dated 2009).

Biological target: T1, PPARδ (Mus musculus, UniProt P35396)
T1 construct: from tissue; host or cells: heart and skeletal muscle (quadriceps) of PPARα knock-out mice
T1 sequence (P35396 1-440): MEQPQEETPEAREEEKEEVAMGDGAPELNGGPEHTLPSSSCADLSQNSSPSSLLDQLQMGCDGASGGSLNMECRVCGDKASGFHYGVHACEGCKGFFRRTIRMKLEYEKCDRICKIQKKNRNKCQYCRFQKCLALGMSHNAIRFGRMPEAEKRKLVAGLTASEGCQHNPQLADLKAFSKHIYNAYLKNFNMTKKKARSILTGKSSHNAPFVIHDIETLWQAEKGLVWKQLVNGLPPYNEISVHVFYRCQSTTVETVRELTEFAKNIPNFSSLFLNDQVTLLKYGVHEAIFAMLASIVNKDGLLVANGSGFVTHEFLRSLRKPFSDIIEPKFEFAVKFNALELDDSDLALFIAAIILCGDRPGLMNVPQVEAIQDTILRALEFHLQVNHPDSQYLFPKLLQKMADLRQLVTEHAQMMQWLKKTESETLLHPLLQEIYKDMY
Assay: In vivo evaluation of PPARδ properties (target gene expression, RT-PCR)
Conditions: PPARα knock-out mouse; 150 mg/kg/day for 3 days
Description: The PPARα knock-out mouse model was used to characterize in vivo PPARδ activation. Animals were treated for 3 days at the dose of 150 mg/kg/day. Total RNA was isolated from heart and skeletal muscle (quadriceps). Messenger RNAs were quantified by quantitative RT-PCR and expression levels were normalized using 18S gene as reference.
The […] knock-out mouse model was used to characterize in vivo PPARδ activation. Animals were treated for 3 days at the dose of 150 mg/kg/day. Total RNA was isolated from heart and skeletal muscle (quadriceps). Messenger RNAs were quantified by quantitative RT-PCR: total RNA was extracted from fragments of skeletal muscle or heart, using the RNeasy® Fibrous Tissue kit (Qiagen), according to the manufacturer's instructions. Reverse transcription was performed on 1 μg of total RNA (quantified using the Ribogreen RNA quantification kit (Molecular Probes)) by action of 1 μl of MMLV-RT enzyme (Sigma) during 1 hour at 37° C. in a total volume of 20 μl. The reaction conditions were 1× buffer (Sigma), 1.5 mM DTT, 0.18 mM dNTPs (Promega), 200 ng pdN6 (Amersham), 30 U RNase inhibitor (Sigma). Quantitative PCR was then carried out using the MyiQ Single-Color Real-Time PCR Detection System (Biorad). Briefly PCR reactions were performed in 96 well plates on 5 μl of diluted reverse transcription mix using the iQ SYBR Green Supermix kit. The reaction conditions were: 25 μl of volume reaction, 3 mM of MgCl2, and 0.5 μl of each reverse and forward primer solutions (10 pMol), Tm of 55° C. The primers pairs are specific for each target genes. […]
The quantity of fluorescence emitted is directly proportional to the quantity of complementary DNA present at the start of the reaction and amplified during the PCR. The relative levels of expression were determined using the standard curve for each transcript. […] The induction factor, i.e. the ratio between the relative signal induced by the compound according to the invention and the average of the values relating to the control group, was then calculated for each sample. […]

Cc1cc(/C=C/C(=O)c2ccc(Br)cc2)cc(C)c1OC(C)(C)C(=O)O [Compound 41, 1-[4-bromophenyl]-3-[3,5-dimethyl-4-carboxydimethylmethyloxyphenyl]prop-2-en-1-one]
Induction: PDK4 expression in the heart | UCP2 expression in the skeletal muscle | UCP3 expression in the heart
